# Assay results taken from ChEMBL document CHEMBL2396560, “Discovery of (R)-4-cyclopropyl-7,8-difluoro-5-(4-(trifluoromethyl)phenylsulfonyl)-4,5-dihydro-1H-pyrazolo[4,3-c]quinoline (ELND006) and (R)-4-cyclopropyl-8-fluoro-5-(6-(trifluoromethyl)pyridin-3-ylsulfonyl)-4,5-dihydro-2H-pyrazolo[4,3-c]quinoline (ELND007): metabolically stable γ-secretase …” (J Med Chem, 2013).
# Tests used:
# [1] = Oral bioavailability in rat; assay type: ADME, organism-based; conditions: in vivo
# [2] = Passive permebility in wild-type MDCK cells; assay type: ADME, cell-based, Canis lupus familiaris; conditions: dog, read-out: permeability
# [3] = Plasma concentration in FVB mouse at 3 mg/kg, po at 3 hrs; assay type: ADME, organism-based; design: dose 3 mg/kg, route oral
# Mus musculus [4] = assay: Reduction in amyloid beta (x to 40) in FVB mouse cortex at 1 mg/kg, po administered as single dose measured at 3 hrs; assay type: functional; design: scale not given: the % may be the effect or the level left
# [5] = Drug uptake in FVB mouse brain at 10 mg/kg, po at 3 hrs; assay type: ADME, organism-based; design: dose 10 mg/kg, route oral; conditions: read-out: Drug uptake
# Cynomolgus monkey = assay: Hepatic toxicity in cynomolgus monkey administered for 1 year as repeated-dosing; assay type: organism-based, Macaca fascicularis; conditions: in vivo
# Plasma [6] = assay: AUC (0 to 3 hrs) in FVB mouse plasma at 3 mg/kg, po; assay type: ADME, organism-based; design: time < 3 hr, dose 3 mg/kg, route oral; conditions: in vivo
# Mus musculus [7] = assay: Toxicity in FVB mouse assessed as effect on Hes-1 mRNA level in thymus at 3 mg/kg, po administered as single dose measured at 3 hrs; assay type: organism-based; design: dose 3 mg/kg, route oral; conditions: in vivo
# Plasma [8] = assay: AUC (0 to 3 hrs) in FVB mouse plasma at 1 mg/kg, po; assay type: ADME, organism-based; design: time < 3 hr, dose 1 mg/kg, route oral; conditions: in vivo
# [9] = Plasma concentration in FVB mouse at 30 mg/kg, po at 3 hrs; assay type: ADME, organism-based; design: dose 30 mg/kg, route oral
# Mus musculus [10] = assay: Reduction in amyloid beta (x to 40) in po dosed FVB mouse brain administered as single dose measured at 3 hrs; assay type: functional
# Mus musculus [11] = assay: Reduction in amyloid beta (x to 40) in FVB mouse cortex at 30 mg/kg, po administered as single dose measured at 3 hrs; assay type: functional; design: scale not given: the % may be the effect or the level left
# Plasma [12] = assay: AUC (0 to 3 hrs) in FVB mouse plasma at 10 mg/kg, po; assay type: ADME, organism-based; design: time < 3 hr, dose 10 mg/kg, route oral; conditions: in vivo
# Gamma-secretase [13] = assay: Inhibition of partially purified human gamma-secretase-mediated cleavage of notch fusion protein measured after overnight incubation by ELISA; assay type: protein-complex assay
# CHO [14] = assay: Inhibition of gamma-secretase in CHO cells assessed expressing APPSw assessed as inhibition of amyloid beta(1 to x) secretion after overnight incubation by ELISA; assay type: cell-based; conditions: Cricetulus griseus
# CHO [15] = assay: Inhibition of gamma-secretase in CHO cells assessed expressing NotchdeltaE assessed as inhibition of notch cleavage after overnight incubation by luciferase reporter gene assay; assay type: cell-based; conditions: Cricetulus griseus
# Liver microsomes [16] = assay: Oxidative metabolism in rat liver microsomes assessed as compound remaining; assay type: ADME, Microsome
# Liver [17] = assay: Glucuronidation metabolism in dog liver microsomes assessed as compound remaining; assay type: ADME, Canis lupus familiaris, Microsome
# Mus musculus [18] = assay: Toxicity in FVB mouse assessed as effect on Hes-1 mRNA level in thymus at 30 mg/kg, po administered as single dose measured at 3 hrs; assay type: organism-based; design: dose 30 mg/kg, route oral; conditions: in vivo
# Liver [19] = assay: Oxidative metabolism in dog liver microsomes assessed as compound remaining; assay type: ADME, Canis lupus familiaris, Microsome
# [20] = Drug uptake in FVB mouse brain at 30 mg/kg, po at 3 hrs; assay type: ADME, organism-based; design: dose 30 mg/kg, route oral; conditions: read-out: Drug uptake
# Mus musculus [21] = assay: Toxicity in FVB mouse assessed as thymus atrophy compound administered orally bid for 7 days; assay type: organism-based; conditions: in vivo, po, 168 h
# Liver microsomes [22] = assay: Glucuronidation metabolism in rat liver microsomes assessed as compound remaining; assay type: ADME, Microsome
# [23] = Plasma concentration in FVB mouse at 1 mg/kg, po at 3 hrs; assay type: ADME, organism-based; design: dose 1 mg/kg, route oral
# Mus musculus [24] = assay: Toxicity in FVB mouse assessed as effect on Hes-1 mRNA level in thymus at 10 mg/kg, po administered as single dose measured at 3 hrs; assay type: organism-based; design: dose 10 mg/kg, route oral; conditions: in vivo
# Homo sapiens [25] = assay: Hepatic toxicity in po dosed healthy human administered as gelatin capsule; assay type: organism-based; conditions: in vivo
# [26] = Plasma concentration in FVB mouse at 10 mg/kg, po at 3 hrs; assay type: ADME, organism-based; design: dose 10 mg/kg, route oral
# [27] = Drug uptake in FVB mouse brain at 3 mg/kg, po at 3 hrs; assay type: ADME, organism-based; design: dose 3 mg/kg, route oral; conditions: read-out: Drug uptake
# [28] = Octanol-water partition co-efficient, log P of the compound by shake-flask method; assay type: physicochemical
# Liver microsomes [29] = assay: Glucuronidation metabolism in human liver microsomes assessed as compound remaining; assay type: ADME, Microsome
# Liver microsomes [30] = assay: Oxidative metabolism in human liver microsomes assessed as compound remaining; assay type: ADME, Microsome
# Mus musculus [31] = assay: Selectivity ratio of EC25 for Reduction in amyloid beta (x to 40) brain to EC25 for change in Hes-1 mRNA level in thymus in po dosed FVB mouse
# Gamma-secretase [32] = assay: Inhibition of partially purified human gamma-secretase-mediated cleavage of MBP-APPc125Sw fusion protein measured after overnight incubation by ELISA; assay type: protein-complex assay
# CHO [33] = assay: Selctivity ratio of ED50 for gamma-secretase in CHO cells assessed expressing NotchdeltaE assessed as inhibition of notch cleavage to ED50 for gamma-secretase in CHO cells assessed expressing APPSw assessed as inhibition of amyloid beta(1 to x) secretion; assay type: cell-based; conditions: Cricetulus griseus
# Liver [34] = assay: Glucuronidation metabolism in mouse liver microsomes assessed as compound remaining; assay type: ADME, Microsome
# [35] = Drug uptake in FVB mouse brain at 1 mg/kg, po at 3 hrs; assay type: ADME, organism-based; design: dose 1 mg/kg, route oral; conditions: read-out: Drug uptake
# Brain [36] = assay: AUC (0 to 3 hrs) in FVB mouse brain at 3 mg/kg, po; assay type: ADME, organism-based; design: time < 3 hr, dose 3 mg/kg, route oral; conditions: in vivo
# Rattus norvegicus [37] = species: Rattus norvegicus; assay: Systemic clearance in rat relative to hepatic blood flow; assay type: ADME, organism-based, Liver; conditions: in vivo
# Brain [38] = assay: AUC (0 to 3 hrs) in FVB mouse brain at 10 mg/kg, po; assay type: ADME, organism-based; design: time < 3 hr, dose 10 mg/kg, route oral; conditions: in vivo
# Mus musculus [39] = assay: Toxicity in FVB mouse assessed as goblet cell hyperplasia in intestine compound administered orally bid for 7 days; assay type: organism-based; conditions: in vivo, po, 168 h
# [40] = Systemic clearance in rat; assay type: ADME, organism-based; conditions: in vivo
# Homo sapiens [41] = assay: Reduction in amyloid beta in CSF of po dosed healthy human administered as gelatin capsule measured after 5 hrs post administration; assay type: functional; design: scale not given: the % may be the effect or the level left
# Mus musculus [42] = assay: Reduction in amyloid beta (x to 40) in FVB mouse cortex at 10 mg/kg, po administered as single dose measured at 3 hrs; assay type: functional; design: scale not given: the % may be the effect or the level left
# Liver [43] = assay: Oxidative metabolism in mouse liver microsomes assessed as compound remaining; assay type: ADME, Microsome
# [44] = biological target: Gamma-secretase (Homo sapiens) (UniProt Q96BI3+Q9NZ42+Q8WW43+P49768+Q92542+P49810); assay: Selctivity ratio of IC50 for partially purified human gamma-secretase-mediated cleavage of notch fusion protein to IC50 for partially purified human gamma-secretase-mediated cleavage of MBP-APPc125Sw fusion protein; assay type: protein-complex assay
# Rattus norvegicus [45] = assay: Hepatic toxicity in rat administered for 6 months as repeated-dosing; assay type: organism-based; conditions: in vivo
# [46] = Aqueous solubility of the compound; assay type: physicochemical; conditions: buffer
# Mus musculus [47] = assay: Reduction in amyloid beta (x to 40) in FVB mouse cortex at 30 mg/kg, po administered as single dose measured at 6 hrs post administration; assay type: functional; design: scale not given: the % may be the effect or the level left
# Brain [48] = assay: AUC (0 to 3 hrs) in FVB mouse brain at 1 mg/kg, po; assay type: ADME, organism-based; design: time < 3 hr, dose 1 mg/kg, route oral; conditions: in vivo
# Mus musculus [49] = assay: Reduction in amyloid beta (x to 40) in FVB mouse cortex at 3 mg/kg, po administered as single dose measured at 3 hrs; assay type: functional; design: scale not given: the % may be the effect or the level left
compound,measurement,setting,value
CC(C)NCC(O)COc1cccc2ccccc12 (stereo not given) [PROPRANOLOL],bioavailability,[1],30%
same,Papp,[2],17.8 ×10⁻⁶ cm/s
O=S(=O)(c1ccc(C(F)(F)F)cc1)N1c2cc(F)c(F)cc2-c2n[nH]cc2[C@H]1C1CC1,concentration at 3 h,[3],190 nM
same,Activity,Mus musculus [4],32%
same,concentration at 3 h,[5],2100 nM
same,Activity,Cynomolgus monkey,Non-toxic
same,AUC,Plasma [6],0.68 µM
same,Activity,Mus musculus [7],-17%
same,AUC,Plasma [8],0.19 µM
same,concentration at 3 h,[9],3000 nM
same,EC25(unbound),Mus musculus [10],0.034 nM
same,Activity,Mus musculus [11],64%
same,AUC,Plasma [12],0.68 µM
same,IC50,Gamma-secretase [13],6.6 nM
same,ED50,CHO [14],1.1 nM
same,ED50,CHO [15],86 nM
same,Stability,Liver microsomes [16],66%
same,Stability,Liver [17],90%
same,Activity,Mus musculus [18],-25%
same,Stability,Liver [19],75%
same,concentration at 3 h,[20],7200 nM
same,Activity,Mus musculus [21],Non-toxic
same,Stability,Liver microsomes [22],90%
same,concentration at 3 h,[23],31 nM
same,Activity,Mus musculus [24],-14%
same,Activity,Homo sapiens [25],Toxic
same,concentration at 3 h,[26],900 nM
same,concentration at 3 h,[27],520 nM
same,logP,[28],3.91
same,Stability,Liver microsomes [29],90%
same,Stability,Liver microsomes [30],80%
same,Selectivity ratio,Mus musculus [31],57
same,IC50,Gamma-secretase [32],0.34 nM
same,Ratio ED50,CHO [33],78
same,Stability,Liver [34],88%
same,concentration at 3 h,[35],120 nM
same,AUC,Brain [36],2.1 µM
same,CLH,Rattus norvegicus [37],40%
same,AUC,Brain [38],7 µM
same,Activity,Mus musculus [39],Non-toxic
same,clearance,[40],22 mL/min/kg
same,Activity,Homo sapiens [41],31%
same,Activity,Mus musculus [42],61%
same,Stability,Liver [43],72%
same,Ratio IC50,[44],19
same,Activity,Rattus norvegicus [45],Non-toxic
same,solubility,[46],3 µg/mL
same,Activity,Mus musculus [47],82%
same,AUC,Brain [48],0.64 µM
same,Activity,Mus musculus [49],48%
